We go through one molecule from patent publication US6436925B1, “Substituted benzamides, their production and their use as cysteine protease inhibitors” (Abbott Laboratories, priority 1998, dated 2002).

As a reminder, the inhibition is the share of the control response that was lost under treatment. As usually defined, the Ki is the equilibrium dissociation constant of an inhibitor or competing ligand from its target. A lower Ki goes with tighter binding.

Structures are written as SMILES. A value given as a limit tells only on which side of the number the result lay.

This assay concerns the target T1, calpain I (human μ-calpain) (Homo sapiens, UniProt P07384).
T1 construct: Human μ-calpain is isolated from erythrocytes; from tissue; host or cells: human erythrocytes
T1 sequence (P07384 1-714): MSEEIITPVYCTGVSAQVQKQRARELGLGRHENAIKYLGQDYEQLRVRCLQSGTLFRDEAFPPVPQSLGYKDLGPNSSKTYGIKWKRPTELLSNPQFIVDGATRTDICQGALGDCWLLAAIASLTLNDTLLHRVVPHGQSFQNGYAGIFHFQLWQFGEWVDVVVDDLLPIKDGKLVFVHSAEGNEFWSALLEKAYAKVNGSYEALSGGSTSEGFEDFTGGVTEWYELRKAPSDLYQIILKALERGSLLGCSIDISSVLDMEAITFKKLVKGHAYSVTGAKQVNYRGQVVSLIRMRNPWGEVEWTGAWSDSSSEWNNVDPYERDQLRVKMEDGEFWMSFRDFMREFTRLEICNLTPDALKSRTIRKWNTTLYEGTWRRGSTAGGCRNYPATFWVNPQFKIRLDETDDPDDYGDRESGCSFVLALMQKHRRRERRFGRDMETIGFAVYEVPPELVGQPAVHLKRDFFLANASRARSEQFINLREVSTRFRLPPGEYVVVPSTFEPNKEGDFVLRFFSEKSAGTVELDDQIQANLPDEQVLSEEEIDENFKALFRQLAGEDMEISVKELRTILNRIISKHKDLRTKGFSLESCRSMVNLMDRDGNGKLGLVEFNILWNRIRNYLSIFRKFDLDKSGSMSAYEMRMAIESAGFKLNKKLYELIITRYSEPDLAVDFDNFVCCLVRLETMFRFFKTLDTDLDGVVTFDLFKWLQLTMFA
T1 sequence (P04632 1-268 partner): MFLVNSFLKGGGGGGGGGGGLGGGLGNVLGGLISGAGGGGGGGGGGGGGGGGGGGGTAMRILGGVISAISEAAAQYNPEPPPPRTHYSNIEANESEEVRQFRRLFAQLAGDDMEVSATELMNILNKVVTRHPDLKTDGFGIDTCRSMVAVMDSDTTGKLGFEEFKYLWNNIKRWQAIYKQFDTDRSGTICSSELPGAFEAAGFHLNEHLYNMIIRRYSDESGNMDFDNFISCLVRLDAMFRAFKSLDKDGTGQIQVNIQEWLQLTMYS
Description: Calpain I and II assay (fluorogenic substrate Suc-Leu-Tyr-AMC). Type of assay: biochemical. On the procedure:
The inhibitory effect of the benzamides I has been determined using enzyme assays known from the literature, determining as criterion of effect a concentration of the inhibitor at which 50% of the enzyme activity is inhibited (=IC50). The amides I were measured in this way for their inhibitory effect on calpain I, calpain II and cathepsin B.
The testing of the inhibitory properties of calpain inhibitors takes place in buffer with 50 mM tris-HCl, pH 7.5; 0.1 M NaCl; 1 mM dithiotreithol [sic]; 0.11 mM CaCl2, using the fluorogenic calpain substrate Suc-Leu-Tyr-AMC (25 mM dissolved in DMSO, Bachem/switzerland). Human μ-calpain is isolated from erythrocytes, and enzyme with a purity >95%, assessed by SDS-PAGE, Western blot analysis and N-terminal sequencing, is obtained after more [sic] chromatographic steps (DEAE-Sepharose, phenyl-Sepharose, Superdex 200 and blue Sepharose). The fluorescence of the cleavage product 7-amino-4-methylcoumarin (AMC) is followed in a Spex Fluorolog fluorimeter at λex=380 nm and λem =460 nm. […]
In a test mixture, 10 μl of substrate (250 μM final) and then 10 μl of μ-calpain (2 μg/ml final, i.e. 18 nM) are added to a 1 ml cuvette containing buffer. The calpain-mediated cleavage of the substrate is measured for from 15 to 20 min. […] Ki values are determined using the classical equation for reversible inhibition: […]

`O=C(N[C@@H](Cc1ccccc1)C(=O)CNS(=O)(=O)c1ccccc1)c1cccc(NS(=O)(=O)c2ccc3ccccc3c2)c1` [Example 1, 3(2-Naphthylsulfonamido)-N(3(S)-4-phenyl-1-phenylsulfonamidobutan-2-on-3-yl)benzamide] yielded an inhibition at 1 µM (at a concentration of 1 μM) of more than 50%. The molecule also came in with a Ki (calpain I, inferred from more than 50% inhibition at 1 μM) of less than 1000 nM.
